Experiments:
C. elegans = assay: Lifespan assay (survival curves); type: in vivo, Caenorhabditis elegans; conditions: for Lifespan / early mortality (survival curves): glod-4 mutant animals, PA, LA, or UMP (20 pM) vs EtOH control
Experimental: Life span assays were performed in Thermo Scientific Precision incubators at 20° C. After alkaline hypochlorite treatment, synchronized L1 animals were either placed onto NGM plates seeded with 5× concentrated E. coli OP50-1 (cultured on Lysogeny Broth/LB overnight) or on RNAi plates supplemented with 20×HT1115 RNAi bacteria. Post-L4 stage of development, all lifespan assays were performed using FUdR (5-fluoro-2 deoxyuridine) plates to inhibit development and growth of progeny. Every two days, animals were transferred on to new 60 mm NGM or RNAi plates freshly seeded with OP50-1 or HT1115 bacteria (with or without drug), respectively. 90-120 animals were considered for each lifespan experiment. Animal viability was assessed visually or with gentle prodding on the head. Animals were censored in the event of internal hatching of the larvae, body rupture, or crawling of larvae from the plates.

[1] = biological target: T1, TRPA-1^E1018A (Ca^2+ impermeable) mutant channel (Caenorhabditis elegans, UniProt Q18297, E1018A); assay: Ca2+ flux-based channel study in C. elegans (intestinal GCaMP1.3), TRPA-1^E1018A mutant channel; type: in vivo; conditions: Ca^+2-impermeable TRPA-1^E1018A channel; for Ca2+ flux (percentage change in peak GCaMP1.3 fluorescence intensity): PA or LA (20 pM)
T1 construct: expressed in transfected cells; host or cells: transgenic C. elegans (strain TQ2772), ges-1 promoter (intestine), trpa-1(ok999) background, with GCaMP1.3
T1 sequence (Q18297 whole entry E1018A): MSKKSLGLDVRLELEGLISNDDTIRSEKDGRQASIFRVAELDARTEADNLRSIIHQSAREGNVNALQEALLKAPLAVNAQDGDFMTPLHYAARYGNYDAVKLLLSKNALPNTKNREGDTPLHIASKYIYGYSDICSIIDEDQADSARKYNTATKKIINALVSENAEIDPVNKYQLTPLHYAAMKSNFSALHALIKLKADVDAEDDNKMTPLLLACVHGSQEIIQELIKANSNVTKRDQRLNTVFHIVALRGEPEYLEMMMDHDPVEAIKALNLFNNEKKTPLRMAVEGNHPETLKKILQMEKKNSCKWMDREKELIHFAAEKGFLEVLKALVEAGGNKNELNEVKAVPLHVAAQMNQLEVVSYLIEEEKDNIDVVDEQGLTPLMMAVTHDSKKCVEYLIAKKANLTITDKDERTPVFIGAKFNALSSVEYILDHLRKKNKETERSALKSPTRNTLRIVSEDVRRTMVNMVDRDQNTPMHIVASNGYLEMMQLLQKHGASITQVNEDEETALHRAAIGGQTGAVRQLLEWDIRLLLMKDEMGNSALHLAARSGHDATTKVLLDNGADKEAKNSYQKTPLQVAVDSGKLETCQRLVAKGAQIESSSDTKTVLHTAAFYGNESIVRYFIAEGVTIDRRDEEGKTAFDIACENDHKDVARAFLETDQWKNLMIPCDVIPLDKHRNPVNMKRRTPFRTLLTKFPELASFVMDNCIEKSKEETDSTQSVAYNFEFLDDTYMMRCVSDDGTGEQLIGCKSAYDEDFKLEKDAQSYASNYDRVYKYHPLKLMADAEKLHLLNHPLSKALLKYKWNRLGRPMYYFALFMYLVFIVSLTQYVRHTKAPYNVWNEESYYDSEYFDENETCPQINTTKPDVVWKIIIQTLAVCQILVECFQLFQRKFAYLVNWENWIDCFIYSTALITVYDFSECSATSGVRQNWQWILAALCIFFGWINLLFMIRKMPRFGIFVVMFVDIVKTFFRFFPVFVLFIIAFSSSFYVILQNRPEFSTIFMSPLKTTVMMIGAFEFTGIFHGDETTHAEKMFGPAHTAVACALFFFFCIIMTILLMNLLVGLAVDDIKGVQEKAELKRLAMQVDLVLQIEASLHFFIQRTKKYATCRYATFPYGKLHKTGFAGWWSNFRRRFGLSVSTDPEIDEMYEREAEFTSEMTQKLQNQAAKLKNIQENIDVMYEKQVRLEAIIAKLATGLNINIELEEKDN
Experimental: (§1) Ca^2+ flux was measured using an upright Olympus compound microscope (BX51) under a 40× objective. Real time sequential G-CaMP1.3 fluorescent images were captured using Hamamatsu Ocra-ER digital CCD camera at a frame rate of 10 frames per second and for a span of 300 frames. Acquired images were analyzed for further intensity measurements using HC Image software v. 1.1.3.0 (Hamamatsu Corp., NJ). Percentage change in fluorescent peak intensity was estimated using the intensity values generated real time by the program.

SKN-1/Nrf2 = assay: SKN-1 activation assay (GFP reporters for SKN-1, gst-4, gcs-1; qPCR); type: in vivo, Caenorhabditis elegans; conditions: for Expression of gst-4 (GFP foci) under trpa-1 knockdown: glod-4;gst-4p::gfp animals, PA or LA (20 pM); for SKN-1 activation (GFP foci in gst-4p::gfp): gst-4p::gfp animals on EV or glod-4 RNAi, PA, LA, or UMP (20 pM)
Experimental: Adult animals were examined for SKN-1/Nrf2 activation using GFP reporters for both SKN-1 and SKN-1 target genes: gst-4 and gcs-1. For exogenous MGO and drug assays, age-synchronized GFP reporter strains were subject to control and treatment conditions for a period of 4-6 hours before microscopy. For RNAi-induced activation studies, GFP reporter strains were fed on HT1115 bacteria expressing empty vector pL4440 or RNAi gene from L1 stage. Synchronized day 1 adult animals were then subjected to microscopic examination. Activation of SKN-1 using SKN-1 fusion reporter was determined as described earlier (An et al. (2003) Genes & Dev. 17: 1882-1893; Onken and Driscoll (2010) PloS One, 5: e8758). Scoring for downstream SKN-1 targets carrying GFP reporter for gcs-1 promoter was performed based on a previous study (Wang et al. (2010) PLoS Genetics, doi. org/10.1371/journal.pgen.1001048) and categorized as follows: ‘high’ for strong GFP signal throughout the intestine, ‘medium’ for GFP signal in the anterior or posterior section of the intestine and ‘low’ for weak or no signal. For animals with gst-4 promoters carrying GFP reporters number of GST-4 positive foci was counted under different conditions as described previously (Fensgardet al. (2010) Aging, 2: 133-159). Quantification of acquired images was done using the Image J™ software (//imagej.nih.gov/ij/).
Total RNA was extracted from nearly 100 age-synchronized adult animals picked and collected in 20 pl of M9 buffer using TRIzol reagent (Life Technologies, CA). Subsequently, 1 pg total RNA was used as template for cDNA synthesis. cDNA was synthesized using the ISCRIPT™ cDNA synthesis kit (Bio-Rad, CA) following manufacturer's protocol. qRT-PCR was carried out using the SensiFAST SYBR No-ROX kit (Bioline, MA) in a LightCycler 480 Real-Time PCR system (Roche Diagnostics Corp., IN). Quantification was performed using the comparative AACt method and normalization for internal reference was done using actin gene act-1.

TRPA-1 = biological target: T2, TRPA-1 (Caenorhabditis elegans, UniProt Q18297); assay: Ca2+ flux-based channel study in C. elegans (intestinal GCaMP1.3), wild-type TRPA-1; type: in vivo; conditions: for Ca2+ flux (percentage change in peak GCaMP1.3 fluorescence intensity): wild-type TRPA-1, PA or LA (20 pM)
T2 construct: TQ3056: XuIs180[plfe2b::GCaMP1.3+plfe-2b::dsred];N2; endogenous in cells; host or cells: whole C. elegans animals, N2 background with intestinal GCaMP1.3 (strain TQ3056)
T2 sequence (Q18297 1-1211): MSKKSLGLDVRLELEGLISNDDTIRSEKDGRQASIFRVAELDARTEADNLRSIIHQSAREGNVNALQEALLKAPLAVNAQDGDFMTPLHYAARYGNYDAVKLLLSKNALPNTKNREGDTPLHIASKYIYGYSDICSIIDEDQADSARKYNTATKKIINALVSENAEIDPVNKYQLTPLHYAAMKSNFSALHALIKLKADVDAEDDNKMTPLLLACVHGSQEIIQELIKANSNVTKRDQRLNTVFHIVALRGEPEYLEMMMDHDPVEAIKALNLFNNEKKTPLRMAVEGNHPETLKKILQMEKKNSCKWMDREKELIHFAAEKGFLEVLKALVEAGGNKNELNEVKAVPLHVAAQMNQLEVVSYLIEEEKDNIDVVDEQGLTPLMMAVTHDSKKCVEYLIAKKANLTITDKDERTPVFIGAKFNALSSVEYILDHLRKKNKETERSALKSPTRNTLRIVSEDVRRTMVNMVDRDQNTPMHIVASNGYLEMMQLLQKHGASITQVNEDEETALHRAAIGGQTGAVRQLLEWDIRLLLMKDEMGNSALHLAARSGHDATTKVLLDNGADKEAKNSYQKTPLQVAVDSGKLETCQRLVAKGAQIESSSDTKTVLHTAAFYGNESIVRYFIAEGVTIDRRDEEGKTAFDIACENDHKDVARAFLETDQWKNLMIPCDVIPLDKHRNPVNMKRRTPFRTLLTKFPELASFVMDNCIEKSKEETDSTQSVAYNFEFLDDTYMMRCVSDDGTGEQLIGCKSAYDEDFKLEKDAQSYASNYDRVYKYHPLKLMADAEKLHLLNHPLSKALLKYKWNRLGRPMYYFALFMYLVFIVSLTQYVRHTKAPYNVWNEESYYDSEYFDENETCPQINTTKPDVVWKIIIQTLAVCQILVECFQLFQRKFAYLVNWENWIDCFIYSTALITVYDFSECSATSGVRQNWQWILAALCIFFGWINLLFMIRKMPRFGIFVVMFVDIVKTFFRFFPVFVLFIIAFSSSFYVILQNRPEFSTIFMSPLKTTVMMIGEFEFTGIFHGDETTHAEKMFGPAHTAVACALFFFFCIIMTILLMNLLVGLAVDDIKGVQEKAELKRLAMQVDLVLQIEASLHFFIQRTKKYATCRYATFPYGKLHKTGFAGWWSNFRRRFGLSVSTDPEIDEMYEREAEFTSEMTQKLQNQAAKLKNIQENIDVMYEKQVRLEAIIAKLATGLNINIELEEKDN
Experimental: as §1

SMILES | Lifespan / early mortality (survival curves) (C. elegans) | Ca2+ flux (percentage change in peak GCaMP1.3 fluorescence intensity) [1] | Expression of gst-4 (GFP foci) under trpa-1 knockdown (SKN-1/Nrf2; trpa-1 RNAi) | SKN-1 activation (GFP foci in gst-4p::gfp) (SKN-1/Nrf2) | Ca2+ flux (percentage change in peak GCaMP1.3 fluorescence intensity) (TRPA-1) | Lifespan (survival curves) (C. elegans; N2 animals, 7 mM MGO vs water) | Ca2+ response (G-CaMP1.3 sensor) ([1]; 7 mM MGO) | SKN-1 nuclear localization (SKN-1::GFP) (SKN-1/Nrf2; 7 mM MGO vs water) | Expression of SKN-1 reporters gst-4 and gcs-1 on trpa-1 knockdown (SKN-1/Nrf2; MGO-treated wild-type animals, 7 mM MGO, trpa-1 RNAi) | SKN-1/Nrf2 activation (gst-4 and gcs-1, GFP reporter and RT-PCR) (SKN-1/Nrf2; exogenous MGO treatment, 7 mM vs water) | Ca2+ response (G-CaMP1.3 sensor) (TRPA-1; functional (wild-type) TRPA-1 channel, 7 mM MGO vs water)
C[C@]1(C(=O)O)CCC[C@]2(C)c3cc(O)ccc3CC[C@@H]12 [PA, podocarpic acid] | able to prevent | significantly reduced | significantly reduced to wild-type levels | activates SKN-1 | robust Ca+^2 flux | – | – | – | – | – | –
O=C(O)CCCCC1CCSS1 (stereo not shown) [LA, a-lipoic acid] | performed similar to PA | significantly reduced | significantly reduced to wild-type levels | SKN-1 activation was observed | robust Ca+^2 flux | – | – | – | – | – | –
CC(=O)C=O [MGO, methylglyoxal] | – | – | – | – | – | early mortality | basal responses | undergo nuclear localization | significantly reduced | significant SKN-1/Nrf2 activation | robust Ca^2+ response
